Patent publication US20140329863A1 (priority 2011, published 2014)
Where two headings read alike, the source gives them in different places.

Assays:
PrP^C in T98G cells = type: cell-based, human
T98G cells = experiment: cells; type: cell-based, human; settings: for EC50: Homo sapiens, T98G, read-out: EC50 (μM) Calcein; for % Inhibition: Calcein (T98G): T98G cells
[1] = Hepatic microsomal stability, human; settings: human liver microsomes
[2] = Hepatic microsomal stability, mouse; settings: mouse liver microsomes
IMR32 cells = type: cell-based, human
PrP^C in IMR32 cells = type: cell-based, human
[3] = tested on: PrP^Sc in dividing ScN2a-cl3 cells; type: cell-based, mouse; parameters: Dividing ELISA pEC50 (μM) 1st Expt. / Dividing ELISA pEC50 (μM) 2nd Expt. / Dividing ELISA pEC50 (μM) 3rd Expt. / Dividing ELISA pEC50 (μM) Mean: unit not given here
[4] = tested on: PrP^Sc in dividing ScN2a-c13 cells; settings: dividing ScN2a-c13 cells; for EC50: read-out: EC50 (ELISA), reduction of PrP^Sc load
[5] = tested on: PrP^Sc in nondividing ScN2a-cl3 cells; type: cell-based, mouse; settings: read-out: Non-Dividing ELISA EC50 (μM) Mean (n = 3); ScN2a-c13 non-dividing cells; mean n = 3
N2a-cl3 cells = experiment: cells; settings: Mus musculus, N2a-cl3, read-out: Dividing Calcein EC50 (μM) Mean (n = 3)
[6] = ScN2a-cl3 dividing cells, 1st determination
[7] = ScN2a-cl3 dividing cells, 2nd determination
[8] = ScN2a-cl3 dividing cells, 3rd determination
[9] = read-out: Dividing ELISA EC50 (μM) 1st Expt., ScN2a-cl3 dividing cells, 1st determination
[10] = read-out: Dividing ELISA EC50 (μM) 2nd Expt., ScN2a-cl3 dividing cells, 2nd determination
[11] = read-out: Dividing ELISA EC50 (μM) 3rd Expt., ScN2a-cl3 dividing cells, 3rd determination
[12] = read-out: Dividing ELISA EC50 (μM) Mean, ScN2a-cl3 dividing cells, mean of three determinations
[13] = ScN2a-cl3 dividing cells, mean of three determinations

| Structure (SMILES) | % Inhibition: Calcein (IMR32) (IMR32 cells) [%] | % Inhibition: SPC (IMR32) (PrP^C in IMR32 cells) | % Inhibition: SPC (T98G) (PrP^C in T98G cells) | % Inhibition: Calcein (T98G) (T98G cells) [%] | EC50 [5] [µM] | Dividing ELISA pEC50 (μM) 1st Expt. [3, 6] | Dividing ELISA pEC50 (μM) 2nd Expt. [3, 7] | Dividing ELISA pEC50 (μM) 3rd Expt. [3, 8] | EC50 [3, 9] [µM] | EC50 [3, 10] [µM] | EC50 [3, 11] [µM] | EC50 [3, 12] [µM] | melting point [°C] | EC50 (N2a-cl3 cells) [µM] | other results |
| --- | --- | --- | --- | --- | --- | --- | --- | --- | --- | --- | --- | --- | --- | --- | --- |
| COc1ccc(CC(=O)NCc2ccccc2)cc1 [IND6612] |  |  |  |  |  |  |  |  |  |  |  |  |  |  | Potency relative to the bromo analog (IND61769) (PrP^C in T98G cells): equal potency to the bromo analog; EC50 (PrP^C in T98G cells; read-out: EC50 (μM) ELISA): 3.36 µM; EC50 (T98G cells): > 10 µM |
| O=C(Cc1ccc(Br)cc1)NCc1ccccc1 [IND61769] |  |  |  |  |  |  |  |  |  |  |  |  |  |  | EC50 (PrP^C in T98G cells; read-out: EC50 (μM) ELISA): 2.33 µM; EC50 (T98G cells): > 10 µM |
| O=C(Cc1ccc(-c2ccccc2)cc1)NCc1ccccc1 [IND116065] |  |  |  |  |  |  |  |  |  |  |  |  |  |  | Potency relative to the bromo analog (IND61769) (PrP^C in T98G cells): 10 times; EC50 (PrP^C in T98G cells; read-out: EC50 (μM) ELISA): 0.267 µM; EC50 (PrP^C in T98G cells; read-out: EC50 (μM) ELISA potency, PrP^C in T98G cells): 0.233 µM; Hepatic Extraction Ratio Human ([1]; predicted hepatic extraction): 0.86; half-life at 1 μM ([1]; human, pH 7.4): 11.1 min; Hepatic Extraction Ratio Mouse ([2]; predicted hepatic extraction): 0.83; half-life at 1 μM ([2]; mouse, pH 7.4): 12.3 min; EC50 (T98G cells): > 10 µM |
| O=C(Cc1ccc(Cl)cc1)NCc1ccccc1 [IND126416] |  |  |  |  |  |  |  |  |  |  |  |  |  |  | EC50 (PrP^C in T98G cells; read-out: EC50 (μM) ELISA): > 10 µM; EC50 (PrP^C in T98G cells; read-out: EC50, PrP^C ELISA in T98G cells): > 10 µM; EC50 (T98G cells): > 10 µM |
| COc1ccc(NC(=O)Nc2ccc(SC(F)(F)F)cc2)cc1 [IND-0002925] | 13 | MW: 342.3 % Inhibition: SPC (IMR32): 22 Calcein: 13 SPC (T98G): 62 Calcein: −10 | MW: 342.3 % Inhibition: SPC (IMR32): 22 Calcein: 13 SPC (T98G): 62 Calcein: −10 | −10 |  |  |  |  |  |  |  |  |  |  |  |
| CC(C)(C)NCC(O)COc1ccc(C23CC4CC(CC(C4)C2)C3)cc1 (stereo not drawn) [IND-0003070] | 34 | MW: 285.4 % Inhibition: SPC (IMR32): 94 Calcein: 34 SPC (T98G): −55 Calcein: −13 | MW: 285.4 % Inhibition: SPC (IMR32): 94 Calcein: 34 SPC (T98G): −55 Calcein: −13 | −13 |  |  |  |  |  |  |  |  |  |  |  |
| COc1ccc(S(=O)(=O)Nc2cc(C)ccc2C)cc1 [IND-0007902] | 36 | MW: 291.4 % Inhibition: SPC (IMR32): 38 Calcein: 36 SPC (T98G): 51 Calcein: 19 | MW: 291.4 % Inhibition: SPC (IMR32): 38 Calcein: 36 SPC (T98G): 51 Calcein: 19 | 19 |  |  |  |  |  |  |  |  |  |  |  |
| Cc1nc2sccn2c1-c1csc(Nc2ccc(N(C)C)cc2)n1 [IND-0009688] | 38 | MW: 288.8 % Inhibition: SPC (IMR32): 66 Calcein: 38 SPC (T98G): 31 Calcein: 8 | MW: 288.8 % Inhibition: SPC (IMR32): 66 Calcein: 38 SPC (T98G): 31 Calcein: 8 | 8 |  |  |  |  |  |  |  |  |  |  |  |
| Cc1[nH]c2ccccc2c1-c1ccnc2ccccc12 [IND-0010878] | 19 | MW: 318.4 % Inhibition: SPC (IMR32): 34 Calcein: 19 SPC (T98G): 64 Calcein: 25 | MW: 318.4 % Inhibition: SPC (IMR32): 34 Calcein: 19 SPC (T98G): 64 Calcein: 25 | 25 |  |  |  |  |  |  |  |  |  |  |  |
| Cc1cc(C)c(S(=O)(=O)NCc2ccccc2)c(C)c1 [IND-0014135] | 4 | MW: 289.4 % Inhibition SPC (IMR32): 55 Calcein: 4 SPC (T98G): 39 Calcein: 9 | MW: 289.4 % Inhibition SPC (IMR32): 55 Calcein: 4 SPC (T98G): 39 Calcein: 9 | 9 |  |  |  |  |  |  |  |  |  |  |  |
| OCCNC1CCCc2c1[nH]c1ccc(Br)cc21 (stereo not drawn) [IND-0015066] | 2 | MW: 309.2 % Inhibition: SPC (IMR32): 45 Calcein: 2 SPC (T98G): −11 Calcein: −27 | MW: 309.2 % Inhibition: SPC (IMR32): 45 Calcein: 2 SPC (T98G): −11 Calcein: −27 | −27 |  |  |  |  |  |  |  |  |  |  |  |
| CC(=O)c1ccc(NC(=O)c2sc3nc4c(cc3c2N)CCCC4)cc1 [IND-0024609] |  |  |  |  |  |  |  |  |  |  |  |  |  |  | EC50 ([3]; read-out: Antiprion activity EC50, thienopyridine analogs): > 10 µM; antiprion activity (in words) [4]: inactive |
| CNc1nc(-c2ccc(OC)c(OC)c2)cs1 [compound 5, 4-(3,4-dimethoxyphenyl)-N-methyl-1,3-thiazol-2-amine] |  |  |  |  | > 32 | >4.5 | >4.5 | >4.5 | > 32 | > 32 | > 32 | > 32 | 120 to 123 | > 32 | antiprion activity (in words) [4]: without significant activity |
| COc1ccc(-c2csc(Nc3cccnc3)n2)cc1OC [compound 7, [4-(3,4-dimethoxyphenyl)-thiazol-2-yl]pyridin-3-yl-amine] |  |  |  |  | > 32 | 5.85 | 5.94 | 5.96 | 1.41 | 1.16 | 1.1 | 1.22 | 251 to 254 | > 32 | Dividing ELISA pEC50 (μM) Mean [3, 13]: 5.92; EC50 [4]: 1.22 µM |
| Cc1ccc(Nc2nc(C)cs2)nc1 [compound 29, (5-Methylpyridin-2-yl)-(4-methylthiazol-2-yl)-amine] |  |  |  |  | > 32 | >4.5 | >4.5 | >4.5 | > 32 | > 32 | > 32 | > 32 | 212 to 214 | > 32 | antiprion activity (in words) [4]: inactive |
| COc1ccc(-c2csc(Nc3cc4ccccc4cn3)n2)cc1 [compound 30, Isoquinolin-3-yl-[4-(4-methoxyphenyl)-thiazol-2-yl]-amine] |  |  |  |  | > 32 | 6.65 | 6.41 | 6.38 | 0.226 | 0.385 | 0.414 | 0.342 | 224 to 228 | > 32 | Dividing ELISA pEC50 (μM) Mean [3, 13]: 6.48; EC50 [4]: 0.34 µM |
| FC(F)(F)Oc1ccc(-c2csc(Nc3cc4ccccc4cn3)n2)cc1 [compound 31, Isoquinolin-3-yl-[4-(4-trifluoromethoxyphenyl)-thiazol-2-yl]-amine] |  |  |  |  | > 32 | >4.5 | >4.5 | >4.5 | > 32 | > 32 | > 32 | > 32 | 269 to 271 | > 32 | antiprion activity (in words) [4]: inactive |
| Cc1csc(Nc2cc3ccccc3cn2)n1 [compound 36, Isoquinolin-3-yl-(4-methylthiazol-2-yl)-amine] |  |  |  |  | > 32 | >4.5 | >4.5 | >4.5 | > 32 | > 32 | > 32 | > 32 | 212 to 215 | > 32 | antiprion activity (in words) [4]: inactive |
| FC(F)(F)c1csc(Nc2cc3ccccc3cn2)n1 [compound 37, Isoquinolin-3-yl-(4-trifluoromethylthiazol-2-yl)-amine] |  |  |  |  | > 32 | 5.05 | 5.14 | 5.01 | 9 | 7.26 | 9.71 | 8.66 | 200 to 203 | > 32 | Dividing ELISA pEC50 (μM) Mean [3, 13]: 5.07; antiprion activity (in words) [4]: less potent |
| COc1ccc(Nc2nc(-c3cc(-c4ccccc4)no3)cs2)nc1 [compound 40, (5-Methoxypyridin-2-yl)-[4-(3-phenylisoxazol-5-yl)-thiazol-2-yl]-amine] |  |  |  |  | > 32 | 6.40 | 6.96 | 6.74 | 0.395 | 0.11 | 0.183 | 0.229 | 203 to 205 | > 32 | Dividing ELISA pEC50 (μM) Mean [3, 13]: 6.70; EC50 [4]: 0.23 µM |
| COc1ccnc(Nc2nc(-c3cc(-c4ccccc4)no3)cs2)c1 [compound 41, (4-Methoxypyridin-2-yl)-[4-(3-phenylisoxazol-5-yl)-thiazol-2-yl]-amine] |  |  |  |  | > 32 | 6.43 | 6.78 | 6.66 | 0.369 | 0.166 | 0.219 | 0.251 | 177 to 179 | > 32 | Dividing ELISA pEC50 (μM) Mean [3, 13]: 6.62; EC50 [4]: 0.25 µM |
